Numbered stars: 1 amine (or outer) side, 2 acyl side, 3 side chain; on linkers, the order of the positions; unused ones are H or OH. Square brackets hold non-standard residues; d marks the D form. Side chains are listed from the residue outwards. Peptide text beside a SMILES is read from it. * marks the point of attachment. C20 diacid = O=C(O)CCCCCCCCCCCCCCCCCCC(=O)*; γGlu = O=C(O)[C@H](CCC(=O)[*:2])N[*:1]; AEEA = NCCOCCOCC(=O)O; Aib = CC(C)(N)C(=O)O

One series deals with T1, human GIPR (Homo sapiens, UniProt P48546).
T1 construct: expressed in transfected cells; host or cells: wild-type CHO-K1, transient transfection with hGIP receptor plasmid (Fugene HD)
T1 sequence (P48546 22-466): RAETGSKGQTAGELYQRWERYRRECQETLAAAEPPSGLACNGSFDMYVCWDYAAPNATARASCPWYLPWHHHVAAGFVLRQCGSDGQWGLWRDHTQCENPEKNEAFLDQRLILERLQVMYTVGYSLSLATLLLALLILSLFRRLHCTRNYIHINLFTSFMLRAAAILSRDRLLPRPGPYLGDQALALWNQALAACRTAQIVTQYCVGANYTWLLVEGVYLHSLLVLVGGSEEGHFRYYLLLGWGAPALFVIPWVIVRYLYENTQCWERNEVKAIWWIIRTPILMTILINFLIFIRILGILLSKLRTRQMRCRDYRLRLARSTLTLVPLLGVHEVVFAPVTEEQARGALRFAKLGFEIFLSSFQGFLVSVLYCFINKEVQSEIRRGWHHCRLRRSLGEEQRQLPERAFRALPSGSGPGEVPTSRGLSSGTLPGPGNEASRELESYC
The experiment in a line: Agonist activity against GIPR, cAMP HTRF in CHO-K1 cells transiently transfected with hGIP receptor. The format is cell-based. For orientation: TR-FRET usually uses a lanthanide donor and a delayed reading to cut background.

Series [1] in a line: Pharmacokinetics in Balb/c mice after a single intravenous injection. The settings on record: male, mouse, mice plasma, 30 nmol/kg. The format is in vivo. How it is done: (§1) Male Balb/c mice weighing 18-30 g and aged 7-9 weeks were purchased from Shanghai Jiesijie Laboratory Animal Co., Ltd. After compound 7 #was prepared in a buffer containing 20 mM citric acid (pH=7.0), compound 7 #was intravenous injected into mice at a dose of 30 nmol/kg body weight via tail vein, and 0.2 mL of blood was separately collected at time points of 0 h, 0.083 h, 0.25 h, 0.5 h, 1 h, 2 h, 4 h, 6 h, 8 h, 24 h, and 32 h. The collected blood of mice was centrifuged at 6000 rpm for 6 min at 4° C. to separate the plasma. The content of compound 7 #in plasma of mice was assayed by the experimental procedures of Example 3.3.

The test system of series [2] is diet-induced-obesity mice. The experiment in a line: Body weight of diet-induced-obesity mice, subcutaneous administration once every 3 days. The settings on record: for Body weight change (%, mean ± SD): 10 nmol/kg. Format: in vivo, C57BL/6 mice.
Series [3] is described as follows: Stability of compounds in human plasma (LC-MS). Format: in vitro ADME.
Experimental: 5 μL of each of samples at concentrations of 20 ng/mL, 50 ng/mL, 100 ng/mL, 200 ng/mL, 500 ng/mL, 1000 ng/mL, 2000 ng/mL, 5000 ng/mL, and 10000 ng/mL was added to 45 L of human plasma. The content of the compounds in the samples was determined by the LC-MS method and a standard curve was formed. 5 μL of a 1 mg/mL polypeptide solution was added to 45 μL of human plasma. […] With the content at 0 min as the standard (100%), the relative content of the retained compounds in the samples at other time points was calculated.
The test system of another series is normal mice. The experiment in a line: Blood glucose in normal mice after a single subcutaneous administration and intraperitoneal glucose. The settings on record: 10 nmol/kg sc; for Blood glucose (mmol/L, mean ± SD): glucose ip 18 h later. The format is in vivo, C57BL/6 mice. The method, then: 18 h later, a glucose solution at a concentration of 0.2 g/mL was intraperitoneally injected. Blood glucose values were measured by collecting blood from the tail of mice at time points of 0 min, 15 min, 30 min, 60 min, and 120 min according to the experimental design. The specific procedures were as follows: the mouse was physically immobilized with the tail exposed, a little part was cut off at the tail end, then the tail was squeezed to bleed, and blood glucose was determined using a Roche active glucometer after the 1st drop of blood was discarded. The area under the blood glucose curve (AUC) was calculated from the results of all time points.

The nature of series [4]: Pharmacokinetics in Balb/c mice after a single subcutaneous injection. The settings on record: male, mouse, sc, mice plasma, 30 nmol/kg. Format: in vivo. How it is done: as §1, with “subcutaneously” for “intravenous”, “left side of abdomen,” for “tail vein,”, “5.2.” for “3.3.”
Series [5] addresses T2, human glucose-dependent insulinotropic polypeptide receptor (GIPR) (human) (UniProt P48546).
T2 sequence: T1 sequence (P48546 22-466)

Series [6] addresses T3, human glucose-dependent insulinotropic polypeptide receptor (GIPR) (human, UniProt P48546).
T3 sequence: T1 sequence (P48546 22-466)
The series can be described thus: cell-based or functional assay.

The target in series [7] is human glucagon-like peptide-1 receptor (GLP-1R) (human, UniProt P43220). The series can be described thus: cell-based or functional assay.

Experimental for human GIPR: Wild-type CHO-K1 cells were collected, and the cell suspension was adjusted to an appropriate density, seeded in a 6-well plate at 2 mL/well, and placed in an incubator at 37° C. with 5% CO2 for adherence culture overnight.

Take `CC[C@H](C)[C@H](NC(=O)[C@H](CCCCN)NC(=O)[C@H](CC(=O)O)NC(=O)[C@H](CCCCNC(=O)COCCOCCNC(=O)COCCOCCNC(=O)CC[C@H](NC(=O)CCCCCCCCCCCCCCCCCCC(=O)O)C(=O)O)NC(=O)[C@H](Cc1ccc(O)cc1)NC(=O)[C@@H](NC(=O)[C@H](CO)NC(=O)[C@H](Cc1ccc(O)cc1)NC(=O)[C@H](CC(=O)O)NC(=O)[C@H](CO)NC(=O)[C@@H](NC(=O)[C@H](Cc1ccccc1)NC(=O)[C@@H](NC(=O)CNC(=O)[C@H](CCC(=O)O)NC(=O)C(C)(C)NC(=O)[C@@H](N)Cc1ccc(O)cc1)[C@@H](C)O)[C@@H](C)O)[C@@H](C)CC)C(=O)N[C@@H](C)C(=O)N[C@@H](C)C(=O)N[C@@H](CCC(N)=O)C(=O)N[C@@H](CCC(=O)O)C(=O)N[C@@H](Cc1ccccc1)C(=O)N[C@H](C(=O)N[C@@H](CC(N)=O)C(=O)N[C@@H](Cc1c[nH]c2ccccc12)C(=O)N[C@@H](CC(C)C)C(=O)N[C@@H](CC(C)C)C(=O)N[C@@H](C)C(=O)NCC(=O)NCC(=O)N1CCC[C@H]1C(=O)N[C@@H](CO)C(=O)N[C@@H](CO)C(=O)NCC(=O)N[C@@H](C)C(=O)N1CCC[C@H]1C(=O)N1CCC[C@H]1C(=O)N1CCC[C@H]1C(=O)N[C@@H](CO)C(N)=O)C(C)C` [Compound 7#] (H-Y[Aib]EGTFTSDYSIYK([AEEA-AEEA-γGlu-C20 diacid])DKIAAQEFVNWLLAGGPSSGAPPPS-NH2): the response at human GIPR was half-maximal at 0.11 nM (EC50). For the same molecule, the AUC(0-inf) – broadly, the area under the concentration-time curve extrapolated to infinity – in series [1] worked out at 16100 ng·h/mL; in series [4], 14500 ng·h/mL. In addition, the half-life (as a rule, how long it takes for the measured level to halve) was 13 h in series [1] and 10.1 h in [4]. Also, the “Body weight change (%, mean ± SD)” value in series [2] (Day 1) was 0%; in series [2] (Day 4), −11.0 ± 1.0%; in series [2] (Day 7), −17.6 ± 2.6%; in [2] (Day 10), −22.6 ± 5.9%; in [2] (Day 13), −22.3 ± 6.3%; in series [2] (Day 16), −22.7 ± 6.9%. Further, the “Body weight change (%, mean ± SD)” value was −25.9 ± 6.2% in series [2] (Day 19), −23.9 ± 5.6% in series [2] (Day 22), −23.9 ± 5.6% in [2] (Day 25) and −25.5 ± 5.3% in series [2] (Day 28). The “body weight-reducing effect on high-fat food-induced-obesity mice” value in series [2] (doses of 3, 10 and 100 nmol/kg) is on record as “significant body weight-reducing effect”. For the same molecule, in [3] (0 min (standard 100%)), the “Relative content of compounds retained in plasma (%)” value was found to be 100.00%. Also, the remaining at 0.5 h, 0.1 mg/mL in series [3] (human, 30 min, read-out: Relative content of compounds retained in plasma (%)) is 101%. Besides, the remaining at 1 h, 0.1 mg/mL in series [3] (human, 60 min, read-out: Relative content of compounds retained in plasma (%)) is 102%. In addition, the remaining at 2 h, 0.1 mg/mL in series [3] (human, 120 min, read-out: Relative content of compounds retained in plasma (%)) came to 103%. Also, in series [3] (human, 240 min, read-out: Relative content of compounds retained in plasma (%)), the remaining at 4 h, 0.1 mg/mL is over 90%. Also, the “reduction of area under the blood glucose curve compared with placebo” value in the series with normal mice is “more than 60%”. Further, in the series with normal mice (0-120 min), the “AUC (area under the blood glucose curve)” value amounted to 10.7 ± 1.8 mmol·h/L. Further, the “Blood glucose (mmol/L, mean ± SD)” value in the series on normal mice (0 min) worked out at 4.4 ± 0.8 mmol/L; in the series on normal mice (15 min) it was 6.7 ± 0.8 mmol/L; in the series on normal mice (30 min), 6.2 ± 1.3 mmol/L; in the series on normal mice (60 min), 5.7 ± 1.2 mmol/L; in the series on normal mice (120 min), 3.8 ± 1.1 mmol/L.
As to LY3298176 (peptide), the Activity against human GIPR (EC50 nM); cAMP, HTRF in series [5] was determined as 0.031 nM.

B1: compound 7# H-YAibEGTFTSDYSIYK(OEG-OEG-yGlu-C20-OH)DKIAAQEFVNWLLAGGPSSGAPPPS-NH2 (peptide)
peptide: H-Y[Aib]EGTFTSDYSIYK([AEEA-AEEA-γGlu-C20‑OH])DKIAAQEFVNWLLAGGPSSGAPPPS-NH2
In the case of B1, the “Activity against human GIPR (EC50 nM); cAMP, HTRF” value in series [6] worked out at 0.11 nM. The “Activity against human GLP-1R (EC50 nM); cAMP, HTRF” value in [7] is 0.021 nM.
